Results reported in patent US8187802B2, “Cell lines useful for assessing modulation of autophagy” (Rutgers, The State University of New Jersey, priority 2008, dated 2012).
“Also recorded” adds a separate entry of the source.

What was measured:
Assay type in all cases: cell-based, mouse
[1] = tested on: p62; assay: Western blot analysis of p62 levels after metabolic stress without and with NAC
Source text: (§1) FIG. 5 illustrates effects of metabolic stress in promoting elevated ROS production and chromosomal instability in autophagy-deficient cells. (A) Autophagy-deficiency leads to elevated ROS production. Overlays show ROS levels in Bcl-2 expressing beclin1^+/+ (Green) and beclin1^+/− iBMK cells (Blue) (x-axis, log scale) under normal growth (0 Di) and at 0.5, 1, 2.5 and 24 hr (beclin1^+/+, green arrows and beclin1^+/−, red arrows) during recovery (0.5-24 hR) from 5 days of metabolic stress (5 Di) by flow-cytometry using the ROS sensor DCF-DA. The ROS levels in untreated cells are shown in dotted lines for comparison. (B) Representative histogram from three independent experiments measuring the mean ROS levels in Bcl-2 expressing beclin1^+/+ and beclin1^+/− iBMK cells shown in (A). […] Representative time-lapse images of Bcl-2 expressing beclin1^+/+ and beclin1^+/− iBMK cells during recovery following 5 days of metabolic stress in presence (NAC) and absence (UT) of the ROS scavenger NAC (1 mM) (relative percentage of adherent cells compared to time 0 is shown). […] Western blot analysis of p62 levels in Bcl-2 expressing beclin1^+/+, beclin1^+/−, atg5^+/+ and atg5^−/− iBMK cell lines following 0 or 7 days of metabolic stress followed by 1 day recovery without and with NAC. […] Numbers represent passage numbers at which ploidy was determined. […]

[2] = tested on: Bcl-2 expressing beclin1^+/+ and beclin1^+/− iBMK cells; assay: Survival during metabolic stress and recovery without and with ROS scavenger (time-lapse images, adherent cells); settings: NAC 1 mM, 5 days of metabolic stress
Source text: as §1

[3] = tested on: diploid beclin1^+/+ and beclin1^+/− iBMK cells; assay: Flow-cytometry analysis of DNA content (progression to aneuploidy) over passages without and with NAC; settings: NAC 1 mM
Source text: FIG. 5 illustrates effects of metabolic stress in promoting elevated ROS production and chromosomal instability in autophagy-deficient cells. (A) Autophagy-deficiency leads to elevated ROS production. Overlays show ROS levels in Bcl-2 expressing beclin1^+/+ (Green) and beclin1^+/− iBMK cells (Blue) (x-axis, log scale) under normal growth (0 Di) and at 0.5, 1, 2.5 and 24 hr (beclin1^+/+, green arrows and beclin1^+/−, red arrows) during recovery (0.5-24 hR) from 5 days of metabolic stress (5 Di) by flow-cytometry using the ROS sensor DCF-DA. The ROS levels in untreated cells are shown in dotted lines for comparison. […] Numbers represent passage numbers at which ploidy was determined.
To determine if the elevated ROS and oxidative stress in autophagy-deficient cells contributes to cellular damage, the stress response without and with the ROS scavenger, N-acetyl cysteine (NAC) was examined. […] To examine the role of increased ROS levels and oxidative stress on genomic instability, the DNA content of early passage diploid beclin1^+/+, and autophagy-deficient beclin1^+/− iBMK cells without and with NAC by flow-cytometry were monitored. beclin1^+/+ iBMK cells maintained diploidy after 40 passages and the presence of NAC had no effect. […]

[4] = tested on: Bcl-2 expressing beclin1^+/+ and beclin1^+/− iBMK cells; assay: MTT assays of sensitivity to ER stress and proteasome inhibition; settings: MTT assay; increasing concentrations; tunicamycin 3 days, epoxomycin 2 days; normal growth conditions
Source text: FIG. 3 illustrates the effects of autophagy defects in altering the stress response and sensitize cells to ER stress and proteasome inhibition. (A) Western blots showing levels of p62, ER chaperones, PDI and ubiquitin in Bcl-2 expressing beclin1^+/+, beclin1^+/−, atg5^+/+ and atg5^−/− iBMK cells following 5 or 7 days of metabolic stress, and 1 and 2 days of recovery. (B-D) Allelic loss of beclin1 sensitizes cells selectively to ER stress and proteasome inhibition. MTT assays showing sensitivity of Bcl-2 expressing beclin1^+/+ (Blue) and beclin1^+/− (Red) iBMK cells in response to increasing concentrations of (B) tunicamycin for 3 days, or (C) epoxomycin for 2 days, and (D) following 5 days of metabolic stress. Data are presented as mean±SD. (E) Autophagy deficiency causes mitochondrial damage. […]
Since autophagy defects indicated an elevated demand for protein folding, the sensitivity of beclin1 cells to pharmacological induction of ER stress was investigated. […] Degradation of unfolded proteins via the proteasome pathway and ameliorates ER stress and to investigate if autophagy deficiency also elevated the burden on the ubiquitin-proteasome system, the sensitivity to the proteasome inhibitor epoxomycin was assessed. […]

Compound | p62 accumulation during metabolic stress ([1]; NAC 1 mM, beclin1^+/− iBMK cells) | p62 accumulation in autophagy-deficient cells ([1]; beclin1^+/− and atg5^−/− cells, 7 days of metabolic stress followed by 1 day recovery, with NAC) | protective effect in beclin1^+/− cells relative to wild-type [2] | survival during metabolic stress ([2]; beclin1^+/+ and beclin1^+/− cells) | effect on maintenance of diploidy ([3]; beclin1^+/+ iBMK cells, 40 passages) | progression to aneuploidy ([3]; beclin1^+/− cells, passages 18 and 39) | sensitivity of beclin1^+/− cells compared to wild-type cells [4]
CC(=O)N[C@@H](CS)C(=O)O [NAC, N-acetyl cysteine] | decreased p62 accumulation | suppresses p62 accumulation | more profound | partially rescues the susceptibility to metabolic stress and recovery; also recorded: improved survival | had no effect | limits progression to aneuploidy; also recorded: delayed this progression | –
Tunicamycin | – | – | – | – | – | – | increased sensitivity
